The target of series [1] is T1, EZH1 (Homo sapiens, UniProt Q92800).
T1 construct: purchased BPS Bioscience
Kind of series: Human MTase screening: EZH1. The series is classed as biochemical. Here is the method: (§1) Assay conditions. The human methyltransferase inhibition assays were performed at BPS Bioscience (San Diego, CA, USA). All of the enzymatic reactions were conducted in duplicate at room temperature for 60-960 min in a 50 μL mixture containing proper methyltransferase assay buffer, S-adenosylmethionine (SAM), enzyme, and the test compound. These 50 μL reactions were carried out in wells of a substrate pre-coated plate. First, enzyme and inhibitor were added to assay wells and preincubated for 30 min at room temperature, then SAM was added to start the reaction. Final DMSO concentration was 1% in all reactions.
(§2) After enzymatic reactions, the reaction mixtures were discarded and each of the wells was washed three times with TBST buffer, and slowly shaken with Blocking Buffer for 10 min. Wells were emptied, and 100 μL of diluted primary antibody was added. The plate was then slowly shaken for 60 minutes at room temperature. […] Immediately, the luminescence of the samples was measured in a BioTek Synergy™ 2 (Winooski, VT, USA) microplate reader using Gen5 software.
(§3) Data analysis. […] The luminescence data/alpha counts were analyzed and compared. […] The percent activity in the presence of each compound was calculated according to the following equation: % activity=(C−C0)/(Ce−C0), where C=the luminescence/alpha counts in the presence of the compound.

Series [2] deals with T2, METTL3/METTL14 (Homo sapiens, UniProt Q86U44).
T2 construct: purchased BPS Bioscience
Kind of series: Human MTase screening: METTL3/METTL14. The series is classed as biochemical. The procedure: as §1, §2, §3

Series [3] deals with T3, PRMT1 (Homo sapiens, UniProt Q99873).
T3 construct: purchased BPS Bioscience
The series can be described thus: Human MTase screening: PRMT1. The format is biochemical. The procedure:
as §1, §2, §3

Series [4] in a line: Liver S9 stability assay, human liver S9. Conditions: n = 2, mean±SD.
Series [5] has as its target T4, G9a (Homo sapiens, UniProt Q96KQ7).
T4 construct: purchased BPS Bioscience
T4 sequence (Q96KQ7 1-1210): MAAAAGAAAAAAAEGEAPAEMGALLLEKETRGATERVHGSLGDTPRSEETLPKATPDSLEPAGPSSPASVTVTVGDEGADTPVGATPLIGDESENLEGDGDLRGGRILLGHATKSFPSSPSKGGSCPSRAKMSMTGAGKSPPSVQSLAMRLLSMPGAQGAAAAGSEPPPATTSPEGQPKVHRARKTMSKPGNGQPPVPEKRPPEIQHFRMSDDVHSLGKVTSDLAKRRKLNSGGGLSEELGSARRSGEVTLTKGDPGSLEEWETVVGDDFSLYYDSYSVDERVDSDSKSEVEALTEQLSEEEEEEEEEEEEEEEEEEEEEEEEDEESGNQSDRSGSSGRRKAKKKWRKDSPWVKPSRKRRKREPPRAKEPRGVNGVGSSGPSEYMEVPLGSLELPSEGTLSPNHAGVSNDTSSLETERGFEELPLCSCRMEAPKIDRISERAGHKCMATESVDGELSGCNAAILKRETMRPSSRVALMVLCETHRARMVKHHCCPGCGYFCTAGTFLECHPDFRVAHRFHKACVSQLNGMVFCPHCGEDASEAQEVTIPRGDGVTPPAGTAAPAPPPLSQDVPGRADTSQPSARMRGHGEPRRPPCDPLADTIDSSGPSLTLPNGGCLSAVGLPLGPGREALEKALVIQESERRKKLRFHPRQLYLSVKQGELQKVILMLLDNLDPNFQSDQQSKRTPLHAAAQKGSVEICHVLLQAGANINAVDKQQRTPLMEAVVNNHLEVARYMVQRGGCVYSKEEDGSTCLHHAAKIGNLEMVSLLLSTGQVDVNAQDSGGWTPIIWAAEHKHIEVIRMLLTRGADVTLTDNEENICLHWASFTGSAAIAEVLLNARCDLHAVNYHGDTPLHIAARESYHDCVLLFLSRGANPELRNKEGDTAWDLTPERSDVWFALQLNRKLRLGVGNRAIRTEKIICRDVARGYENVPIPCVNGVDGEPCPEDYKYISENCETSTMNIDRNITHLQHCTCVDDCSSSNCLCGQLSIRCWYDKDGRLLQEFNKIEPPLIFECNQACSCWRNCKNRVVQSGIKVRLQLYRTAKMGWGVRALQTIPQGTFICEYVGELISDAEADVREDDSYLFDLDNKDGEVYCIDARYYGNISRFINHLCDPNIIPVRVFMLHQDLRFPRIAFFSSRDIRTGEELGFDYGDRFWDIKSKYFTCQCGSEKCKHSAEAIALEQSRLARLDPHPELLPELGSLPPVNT
Kind of series: Human MTase screening: G9a. The format is biochemical. Here is the method:
as §1, §2, §3

A short description of series [6]: Liver S9 stability assay, mouse liver S9. Conditions: n = 2, mean±SD.
The target in series [7] is T5, SUV39H1 (Homo sapiens, UniProt O43463).
T5 construct: purchased BPS Bioscience
T5 sequence (O43463 1-412): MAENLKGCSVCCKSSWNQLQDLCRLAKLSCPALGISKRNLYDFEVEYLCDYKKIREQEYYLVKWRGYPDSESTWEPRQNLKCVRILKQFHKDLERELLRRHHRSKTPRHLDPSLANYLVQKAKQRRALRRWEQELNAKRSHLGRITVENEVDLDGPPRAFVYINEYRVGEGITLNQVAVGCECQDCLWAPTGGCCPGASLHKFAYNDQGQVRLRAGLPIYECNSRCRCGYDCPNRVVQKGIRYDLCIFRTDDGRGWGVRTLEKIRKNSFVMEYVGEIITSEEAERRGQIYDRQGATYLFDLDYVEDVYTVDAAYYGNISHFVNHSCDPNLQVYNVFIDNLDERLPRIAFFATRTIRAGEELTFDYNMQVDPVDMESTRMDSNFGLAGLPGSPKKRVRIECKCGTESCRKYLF
Kind of series: Human MTase screening: SUV39H1. The series is classed as biochemical. The procedure: as §1, §2, §3

For series [8], the target named is T6, PRMT3 (Homo sapiens, UniProt O60678).
T6 construct: purchased BPS Bioscience
Kind of series: Human MTase screening: PRMT3. The format is biochemical. Here is the method: as §1, §2, §3

Structures are written as SMILES. Marks after values point to notes of the source that are not given here.

T2 sequence (Q86U44 whole entry): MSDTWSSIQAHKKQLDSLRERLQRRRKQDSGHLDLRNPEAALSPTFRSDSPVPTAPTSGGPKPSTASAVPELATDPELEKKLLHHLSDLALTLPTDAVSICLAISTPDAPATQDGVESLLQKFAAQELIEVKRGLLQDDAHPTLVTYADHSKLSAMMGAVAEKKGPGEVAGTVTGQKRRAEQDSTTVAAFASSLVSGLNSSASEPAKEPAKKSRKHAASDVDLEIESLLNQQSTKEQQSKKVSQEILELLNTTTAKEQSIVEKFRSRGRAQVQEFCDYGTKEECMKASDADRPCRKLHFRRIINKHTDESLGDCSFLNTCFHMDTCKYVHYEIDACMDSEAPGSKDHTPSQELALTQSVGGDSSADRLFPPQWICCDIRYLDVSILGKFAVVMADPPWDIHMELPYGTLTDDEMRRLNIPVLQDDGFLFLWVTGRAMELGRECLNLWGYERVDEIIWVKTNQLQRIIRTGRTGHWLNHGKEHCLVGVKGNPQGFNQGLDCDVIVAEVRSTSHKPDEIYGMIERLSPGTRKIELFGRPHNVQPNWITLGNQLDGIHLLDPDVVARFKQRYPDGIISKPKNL
T2 sequence (Q9HCE5 whole entry partner): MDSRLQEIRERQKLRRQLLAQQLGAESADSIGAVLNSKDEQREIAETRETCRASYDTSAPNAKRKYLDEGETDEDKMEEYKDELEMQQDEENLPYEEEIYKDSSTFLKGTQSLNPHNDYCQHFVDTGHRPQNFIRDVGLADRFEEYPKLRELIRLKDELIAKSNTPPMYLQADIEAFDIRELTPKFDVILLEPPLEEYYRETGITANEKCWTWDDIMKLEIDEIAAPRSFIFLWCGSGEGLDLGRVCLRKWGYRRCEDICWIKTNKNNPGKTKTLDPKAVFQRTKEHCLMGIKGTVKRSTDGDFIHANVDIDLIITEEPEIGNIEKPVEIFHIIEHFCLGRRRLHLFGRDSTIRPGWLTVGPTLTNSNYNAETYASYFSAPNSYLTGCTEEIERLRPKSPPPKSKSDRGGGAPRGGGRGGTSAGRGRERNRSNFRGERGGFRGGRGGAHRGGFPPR
T3 sequence (Q99873 whole entry): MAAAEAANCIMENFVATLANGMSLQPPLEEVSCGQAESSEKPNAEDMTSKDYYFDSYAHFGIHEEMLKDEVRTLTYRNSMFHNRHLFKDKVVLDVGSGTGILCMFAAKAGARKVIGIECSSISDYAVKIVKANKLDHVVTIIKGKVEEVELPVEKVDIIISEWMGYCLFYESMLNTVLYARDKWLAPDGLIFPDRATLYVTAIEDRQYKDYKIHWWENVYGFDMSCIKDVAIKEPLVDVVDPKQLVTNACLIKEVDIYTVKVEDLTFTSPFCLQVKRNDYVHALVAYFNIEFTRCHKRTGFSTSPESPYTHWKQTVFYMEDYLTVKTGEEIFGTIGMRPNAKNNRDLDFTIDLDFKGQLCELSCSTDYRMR
T6 sequence (O60678 whole entry): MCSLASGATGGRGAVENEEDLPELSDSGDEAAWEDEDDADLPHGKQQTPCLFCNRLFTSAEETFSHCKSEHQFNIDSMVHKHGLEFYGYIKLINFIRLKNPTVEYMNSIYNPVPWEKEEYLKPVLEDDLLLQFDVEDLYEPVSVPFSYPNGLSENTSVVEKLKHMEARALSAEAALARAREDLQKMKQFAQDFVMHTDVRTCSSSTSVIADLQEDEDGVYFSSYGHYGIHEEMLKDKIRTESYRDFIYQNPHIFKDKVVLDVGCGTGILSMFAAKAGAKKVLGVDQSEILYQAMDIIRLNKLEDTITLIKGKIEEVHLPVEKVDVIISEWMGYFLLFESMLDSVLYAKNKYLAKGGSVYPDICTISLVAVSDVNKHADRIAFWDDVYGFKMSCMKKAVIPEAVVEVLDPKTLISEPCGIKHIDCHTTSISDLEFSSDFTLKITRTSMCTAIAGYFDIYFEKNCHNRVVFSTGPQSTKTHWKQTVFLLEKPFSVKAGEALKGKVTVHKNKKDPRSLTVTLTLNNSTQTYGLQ
T1 sequence (Q92800 whole entry): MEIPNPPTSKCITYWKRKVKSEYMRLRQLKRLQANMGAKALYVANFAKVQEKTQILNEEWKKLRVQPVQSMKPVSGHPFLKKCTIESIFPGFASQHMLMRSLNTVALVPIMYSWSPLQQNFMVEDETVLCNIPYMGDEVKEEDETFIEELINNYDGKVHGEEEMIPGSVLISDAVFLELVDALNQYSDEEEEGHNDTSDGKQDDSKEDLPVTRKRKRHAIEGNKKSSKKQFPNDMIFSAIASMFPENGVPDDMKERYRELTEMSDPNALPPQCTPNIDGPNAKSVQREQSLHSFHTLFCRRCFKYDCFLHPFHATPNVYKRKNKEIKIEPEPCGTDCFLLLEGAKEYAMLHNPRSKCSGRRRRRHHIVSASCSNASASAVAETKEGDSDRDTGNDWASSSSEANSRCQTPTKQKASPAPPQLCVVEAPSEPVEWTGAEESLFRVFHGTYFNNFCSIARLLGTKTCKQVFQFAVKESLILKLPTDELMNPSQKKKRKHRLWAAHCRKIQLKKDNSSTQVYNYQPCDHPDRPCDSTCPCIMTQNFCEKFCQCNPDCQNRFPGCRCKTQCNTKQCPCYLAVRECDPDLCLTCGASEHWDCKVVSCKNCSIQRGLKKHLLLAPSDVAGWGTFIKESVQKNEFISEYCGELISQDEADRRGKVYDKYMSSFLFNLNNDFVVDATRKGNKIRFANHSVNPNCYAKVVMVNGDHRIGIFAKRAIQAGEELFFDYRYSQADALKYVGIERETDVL
T1 sequence (O75530 whole entry partner): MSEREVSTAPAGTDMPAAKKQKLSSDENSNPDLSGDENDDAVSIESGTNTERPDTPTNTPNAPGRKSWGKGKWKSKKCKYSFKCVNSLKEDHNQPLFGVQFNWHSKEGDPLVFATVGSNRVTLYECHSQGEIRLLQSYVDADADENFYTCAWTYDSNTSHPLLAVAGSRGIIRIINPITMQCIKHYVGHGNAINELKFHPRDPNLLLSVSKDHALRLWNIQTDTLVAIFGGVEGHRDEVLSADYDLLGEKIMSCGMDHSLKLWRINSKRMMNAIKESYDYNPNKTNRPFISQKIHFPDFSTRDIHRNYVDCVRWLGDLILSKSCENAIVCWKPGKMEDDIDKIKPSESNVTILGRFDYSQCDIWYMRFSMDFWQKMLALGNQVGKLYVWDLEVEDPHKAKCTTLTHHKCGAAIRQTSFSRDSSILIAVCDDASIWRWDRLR
T1 sequence (Q15022 whole entry partner): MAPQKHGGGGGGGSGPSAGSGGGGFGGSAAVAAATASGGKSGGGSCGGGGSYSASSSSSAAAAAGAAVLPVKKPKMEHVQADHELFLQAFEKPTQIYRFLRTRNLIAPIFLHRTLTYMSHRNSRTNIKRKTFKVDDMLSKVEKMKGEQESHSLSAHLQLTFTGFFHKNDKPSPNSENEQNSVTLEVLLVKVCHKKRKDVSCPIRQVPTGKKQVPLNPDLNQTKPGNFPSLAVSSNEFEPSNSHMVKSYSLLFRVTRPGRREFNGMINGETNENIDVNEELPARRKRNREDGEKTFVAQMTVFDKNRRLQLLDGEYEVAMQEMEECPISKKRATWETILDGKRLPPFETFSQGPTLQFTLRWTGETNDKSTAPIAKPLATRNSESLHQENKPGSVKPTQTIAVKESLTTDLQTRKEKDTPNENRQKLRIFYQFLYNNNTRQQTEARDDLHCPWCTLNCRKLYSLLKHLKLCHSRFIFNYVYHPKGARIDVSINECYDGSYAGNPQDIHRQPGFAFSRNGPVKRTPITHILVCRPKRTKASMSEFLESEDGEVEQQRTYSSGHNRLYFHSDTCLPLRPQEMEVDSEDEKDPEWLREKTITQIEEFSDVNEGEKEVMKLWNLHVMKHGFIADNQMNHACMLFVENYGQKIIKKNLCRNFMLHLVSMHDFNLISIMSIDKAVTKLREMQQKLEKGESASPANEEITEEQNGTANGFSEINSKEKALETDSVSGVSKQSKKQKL
T1 sequence (Q09028 whole entry partner): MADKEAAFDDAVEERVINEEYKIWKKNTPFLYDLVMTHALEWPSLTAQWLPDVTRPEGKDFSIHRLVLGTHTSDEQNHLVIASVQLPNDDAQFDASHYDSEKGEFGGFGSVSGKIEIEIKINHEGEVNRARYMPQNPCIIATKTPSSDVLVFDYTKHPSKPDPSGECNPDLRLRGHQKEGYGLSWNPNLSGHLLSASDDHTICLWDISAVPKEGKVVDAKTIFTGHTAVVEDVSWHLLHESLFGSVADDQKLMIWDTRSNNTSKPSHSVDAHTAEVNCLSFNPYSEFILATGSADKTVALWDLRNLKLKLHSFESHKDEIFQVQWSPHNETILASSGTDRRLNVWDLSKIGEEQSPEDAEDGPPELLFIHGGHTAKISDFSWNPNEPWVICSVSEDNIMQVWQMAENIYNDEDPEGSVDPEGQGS
T1 sequence (Q6ZN18 whole entry partner): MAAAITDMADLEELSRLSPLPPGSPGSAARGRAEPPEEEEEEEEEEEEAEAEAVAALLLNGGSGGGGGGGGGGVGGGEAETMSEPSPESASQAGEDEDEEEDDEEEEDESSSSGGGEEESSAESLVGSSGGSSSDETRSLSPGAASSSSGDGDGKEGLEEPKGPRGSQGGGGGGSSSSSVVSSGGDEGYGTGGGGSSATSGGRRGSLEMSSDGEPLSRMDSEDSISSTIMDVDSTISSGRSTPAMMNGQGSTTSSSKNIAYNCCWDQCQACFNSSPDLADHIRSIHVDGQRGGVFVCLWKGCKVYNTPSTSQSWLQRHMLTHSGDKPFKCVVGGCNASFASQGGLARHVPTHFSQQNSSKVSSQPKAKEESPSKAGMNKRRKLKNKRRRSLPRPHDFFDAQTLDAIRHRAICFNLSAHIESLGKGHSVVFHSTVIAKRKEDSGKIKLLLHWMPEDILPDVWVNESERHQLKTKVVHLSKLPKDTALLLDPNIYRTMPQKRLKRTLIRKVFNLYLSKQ

Turning to `Nc1ncnc2c1ncn2[C@@H]1O[C@H](CNS(=O)(=O)c2ccc3ccccc3c2)[C@@H](O)[C@H]1O` [Compound 3, N-(((2R,3S,4R,5R)-5-(6-Amino-9H-purin-9-yl)-3,4-dihydroxytetrahydrofuran-2-yl)methyl)naphthalene-2-sulfonamide], the inhibition at 10 µM was 2% in series [1]; 10% in series [2]; 5% in series [3]; 11% in series [5]; 11% in series [7]; 0% in series [8]. Further, the “Human Liver S9 Stability t1/2, Phase I” value in series [4] (cofactor NADPH) was found to be 11.2 ± 2.27 h. Further, the “Human Liver S9 Stability t1/2, Phase II” value in series [4] (cofactor UDPGA) is given as >45^e min. Moreover, the “Mouse Liver S9 Stability t1/2, Phase I” value in series [6] (cofactor NADPH) was found to be 4.55 ± 0.383 h. Further, the “Mouse Liver S9 Stability t1/2, Phase II” value in series [6] (cofactor UDPGA) is listed as >45^e min.

For the origin of these results see patent publication US20260000698A1 (priority 2022, published 2026).
